Paper PMC6026870, “Selective induction of cancer cell death by VDAC1‐based peptides and their potential use in cancer therapy” (Molecular Oncology, 2018)

Experiments:
[1] = tested on: U‐87MG; assay: Cell death, PI staining and FACS; assay type: cell-based; settings: anti‐TfR antibodies (1 : 250) 2 h, then peptide 5 μM 3 h, n = 2 (Fig. 3C)
Method: Leukemia cells, U‐937, MEC‐1 cells (4 × 10^5 or 8 × 10^5 cells/sample, respectively), as well as other leukemia or suspension cell lines, were incubated in 200 μL serum‐free medium with various concentrations of the peptide for 90 min at 23–25 °C, collected by centrifugation (500 g, 5 min), washed with PBS, and analyzed for cell death. Adherent cells (6 × 10^5 mL^−1 at 70–80% confluence) were incubated with the peptide of interest in 500 μL serum‐free recommended culture medium for 3–6 h at 37 °C and 5% CO2. The cells were then trypsinized, centrifuged (1500 g, 5 min), washed with PBS, and analyzed for the desired activity. Following peptide treatment, cells were subjected to cell death analysis. […] PRO software (BD Biosciences, San Jose, CA, USA).
For each line, cells were incubated with different peptide concentrations, and cell death was determined by PI staining and FACS analysis (Figs 1, 2, 3).

[2] = tested on: A549 cells (HK‐I in cytosolic fraction); assay: Mitochondria‐bound HK detachment, cell fractionation and immunoblotting; assay type: cell-based, human; settings: A549, peptide 3, 5, 10 μM, 3 h; digitonin […]; immunoblot (Fig. 4E)
Method: Peptide‐induced HK detachment from mitochondria to the cytosol was also analyzed by immunoblotting. […] Samples were centrifuged at 12 000 g at 4 °C for 10 min, and the obtained supernatants (cytosolic fraction) and pellets (mitochondria) were analyzed by immunoblotting using anti‐HK‐I, anti‐VDAC1, and anti‐GAPDH antibodies, and then with secondary HRP‐conjugated antibodies.

[3] = target: T1, HK‐I (Homo sapiens, UniProt P19367); assay: HK activity assay with purified recombinant HK‐I; assay type: biochemical; settings: HK‐I 13 µg/ml pre‐incubated with peptide; 1 mM ATP, G6PDH‐coupled, absorbance at 340 nm (Fig. S3B)
T1 construct: His; made in house; host or cells: Escherichia coli BL21
T1 sequence (P19367 1-917): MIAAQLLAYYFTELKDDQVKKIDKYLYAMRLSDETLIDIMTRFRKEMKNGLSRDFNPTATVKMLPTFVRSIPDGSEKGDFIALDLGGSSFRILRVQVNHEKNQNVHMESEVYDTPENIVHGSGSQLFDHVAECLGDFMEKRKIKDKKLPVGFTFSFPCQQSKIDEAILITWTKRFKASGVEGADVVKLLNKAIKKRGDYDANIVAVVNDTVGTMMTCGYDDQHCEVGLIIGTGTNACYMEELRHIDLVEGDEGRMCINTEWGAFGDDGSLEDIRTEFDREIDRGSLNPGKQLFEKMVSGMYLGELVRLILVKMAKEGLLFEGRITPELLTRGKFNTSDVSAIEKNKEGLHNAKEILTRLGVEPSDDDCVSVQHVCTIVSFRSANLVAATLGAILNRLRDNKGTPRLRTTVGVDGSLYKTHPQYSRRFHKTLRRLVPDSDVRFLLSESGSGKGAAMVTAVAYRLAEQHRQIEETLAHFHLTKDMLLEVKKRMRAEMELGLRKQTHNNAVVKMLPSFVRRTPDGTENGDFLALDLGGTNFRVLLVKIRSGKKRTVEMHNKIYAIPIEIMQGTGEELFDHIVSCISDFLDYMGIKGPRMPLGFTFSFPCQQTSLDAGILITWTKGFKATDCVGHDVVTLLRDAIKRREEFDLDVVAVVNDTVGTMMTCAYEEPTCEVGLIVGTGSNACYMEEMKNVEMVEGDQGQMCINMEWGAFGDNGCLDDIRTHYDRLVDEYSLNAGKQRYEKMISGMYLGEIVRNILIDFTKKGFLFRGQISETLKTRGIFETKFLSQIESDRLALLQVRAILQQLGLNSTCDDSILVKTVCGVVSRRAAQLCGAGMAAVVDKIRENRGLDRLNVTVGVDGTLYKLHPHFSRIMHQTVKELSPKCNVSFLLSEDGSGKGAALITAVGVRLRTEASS
Method: Human HK‐I and HK‐II were cloned into plasmid pET‐His DNA and expressed in Escherichia coli BL21 upon IPTG induction. HK was purified from lysed cells using a HiTrap nickel column (GE Healthcare). Following dialysis, the imidazole‐eluted protein was further purified using a Blue HiTrap column (GE Healthcare). HK was eluted using 10 mM glucose, 20 mM Tris/HCl (pH 8.5), 20% glycerol, and 1.5 mM glucose‐6‐phosphate. Fractions were analyzed by SDS/PAGE and tested for HK activity. The purified active fractions were combined and stored in aliquots at −80 °C.
Change in absorbance at 340 nm (NADH production) was spectrophotometrically measured following addition of 1 mM ATP and 0.05 unit·mL^−1 glucose‐6‐phosphate dehydrogenase.
Purified HK-I (13 µg/ml) was pre-incubated with the indicated concentrations of Tf-D-LP4 (●) or R-Tf-D-LP4 (○) and assayed for HK activity as described in Materials and Methods. Change in absorbance at 340 nm (NADH production) was spectrophotometrically measured following addition of 1 mM ATP, and 0.05 unit/ml glucose-6-phosphate dehydrogenase. C. Tf-D-LP4 and R-Tf-D-LP4 solubility. The peptides were dissolved to a final concentration of 5 mM in 5% DMSO and diluted to 1.1 mM in HBSS. Peptide absorbance in the supernatant was measured at 280 nm following centrifugation at 12,000g before and after 75 min incubation at 24 °C. […] Cell death was analyzed using PI and FACS analysis. […]

[4] = tested on: HeLa cells; assay: Cellular ATP levels, luciferase‐based assay (CellTiter‐Glo); assay type: cell-based, human; settings: 3 h, percentage of control, mean ± SE (n = 3) (Fig. 4F)
Method: Cellular ATP levels were estimated using a luciferase‐based assay (CellTiter‐Glo; Promega). […] ATP levels were assayed according to the manufacturer's protocol, and luminescence was recorded using an Infinite M1000 plate reader (Tecan, Männedorf, Switzerland).

[5] = tested on: A549 cells; assay: Apoptosis, acridine orange/ethidium bromide staining; assay type: cell-based, human; settings: A549, 3 h; quantitation, mean ± SE (n = 3) (Fig. 5E)
Method: For PI and annexin V–FITC staining, A549 or MDA‐MB‐231 cells, untreated or treated with VDAC1‐based peptides, were collected (1500 g for 5 min), washed, and resuspended in 200 μL binding buffer (10 mM HEPES/NaOH (pH 7.4), 140 mM NaCl, and 2.5 mM CaCl2). Annexin V–FITC staining was performed according to the recommended protocol. Cells were then washed once with binding buffer and resuspended in 200 μL binding buffer, to which PI was added immediately before flow cytometric analysis. At least 10 000 events were collected, recorded on a dot plot, and analyzed by flow cytometer. Acridine orange/ethidium bromide staining was carried as described previously (Zaid et al., 2005), with cells visualized by fluorescence microscopy (Olympus LX2‐KSP, Tokyo, Japan), and images were captured with a CCD camera. About 200 cells were counted for each experiment.

## CC[C@H](C)[C@H](NC(=O)[C@H](C)NC(=O)[C@@H](N)Cc1c[nH]cn1)C(=O)N[C@@H](Cc1ccc(O)cc1)C(=O)N1CCC[C@H]1C(=O)N[C@@H](CCCNC(=N)N)C(=O)N[C@@H](Cc1c[nH]cn1)C(=O)N[C@H](CO)C(=O)N[C@H](Cc1c[nH]c2ccccc12)C(=O)N[C@@H](C(=O)N[C@H](Cc1c[nH]c2ccccc12)C(=O)N[C@H](CCC(=O)O)C(=O)N[C@H](CCCCN)C(=O)N[C@H](CCCCN)C(=O)N[C@H](CC(C)C)C(=O)N[C@H](CCC(=O)O)C(=O)N[C@@H](C(=O)N[C@H](C)C(=O)N[C@@H](C(=O)N[C@H](CC(N)=O)C(=O)N[C@H](CC(C)C)C(=O)N[C@H](C)C(=O)N[C@H](Cc1c[nH]c2ccccc12)C(=O)N[C@@H](C(=O)N[C@H](C)C(=O)NCC(=O)N[C@H](CC(N)=O)C(=O)N[C@H](CO)C(=O)N[C@H](CC(N)=O)C(=O)N[C@H](CCCCN)C(=O)N[C@H](Cc1c[nH]c2ccccc12)C(=O)N[C@@H](C(=O)N[C@H](Cc1c[nH]c2ccccc12)C(=O)N[C@H](CCCCN)C(=O)O)[C@H](C)O)[C@H](C)O)C(C)C)[C@H](C)O)[C@H](C)O [Tf‐D‐LP4]
[1]
  decrease in peptide‐induced cell death in anti‐TfR antibody‐treated cells: about twofold
[2]
  increase in HK in the cytosolic fraction: about twofold
[3]
  inhibition of purified HK‐I activity: but not Tf-D-LP4 inhibits HK-I activity
[4]
  decrease of cellular ATP levels: about 40%
[5]
  apoptotic cell death (acridine orange/ethidium bromide): over 70%
